Publication PMC4627656, “Combining Metabolite-Based Pharmacophores with Bayesian Machine Learning Models for Mycobacterium tuberculosis Drug Discovery” (PLoS ONE, 2015)
In brackets after ≈: the same amount, converted by molar mass.

System: not listed separately
Assay: in vitro
Settings: African green monkey

| SMILES | CC50 at 72 h [µg/mL] |
| --- | --- |
| CC(=O)c1c(C)[n+]([O-])c2ccc(Cl)cc2[n+]1[O-] [SRI4] | > 40 |
| COc1ccc2c(c1)[n+]([O-])c(C(=O)c1cccnc1)c(C)[n+]2[O-] [SRI12] | 1.7 (≈ 5.46 µM) |
| Cc1c(C(=O)c2cccnc2)[n+]([O-])c2cc(Cl)c(Cl)cc2[n+]1[O-] [SRI55] | > 40 |
| CC(C)=CCC/C(C)=C/CCC(=O)c1c(C)[n+]([O-])c2cc(Cl)c(Cl)cc2[n+]1[O-] [SRI56] | 4.5 (≈ 10.6 µM) |
| CC(C)=CCCC(=O)c1c(C)[n+]([O-])c2cc(Cl)c(Cl)cc2[n+]1[O-] [SRI57] | > 40 |

System: Mtb H37Rv strain
Assay: Resazurin (Alamar Blue) MIC assay against replicating Mtb
Type: cell-based, Mycobacterium tuberculosis
Settings: Mycobacterium tuberculosis, H37RV, in vitro cultured Mtb H37Rv; lowest concentration inhibiting ≥90% growth; initial hits, quinoxaline di-N-oxides, positive controls; read-out: Mtb MIC (H37Rv)

| SMILES | MIC [µg/mL] |
| --- | --- |
| O=C(NCc1ccccn1)c1ccccc1[N+](=O)[O-] [BAS 00623753, 2-nitro-N-pyridin-2-ylmethyl-benzamide] | 5 (≈ 19.4 µM) |
| c1coc(CNCc2c[nH]c3ccccc23)c1 [BAS 7571651, furan-2-ylmethyl-(1H-indol-3-ylmethyl)-amine] | 40 (≈ 177 µM) |
| CO[C@H]1/C=C/O[C@@]2(C)Oc3c(C)c(O)c4c(O)c(c(/C=N/N5CCN(C)CC5)c(O)c4c3C2=O)NC(=O)/C(C)=C\C=C\[C@H](C)[C@H](O)[C@@H](C)[C@@H](O)[C@@H](C)[C@H](OC(C)=O)[C@@H]1C [Rifampicin, reference compound] | 0.0031 to 0.012 (≈ 0.00377 to 0.0146 µM) |
| CC(=O)c1c(C)[n+]([O-])c2ccc(Cl)cc2[n+]1[O-] [SRI4] | 5 (≈ 19.8 µM) |
| Cc1c(C(=O)c2ccccc2)[n+]([O-])c2cc(Cl)ccc2[n+]1[O-] [SRI8] | 10 (≈ 31.8 µM) |
| COc1ccc2c(c1)[n+]([O-])c(C)c(C(=O)c1ccccc1)[n+]2[O-] [SRI9] | 5 (≈ 16.1 µM) |
| Cc1c(C(=O)c2ccccc2)[n+]([O-])c2ccc([N+](=O)[O-])cc2[n+]1[O-] [SRI10] | 5 (≈ 15.4 µM) |
| COc1ccc2c(c1)[n+]([O-])c(C(=O)c1cccnc1)c(C)[n+]2[O-] [SRI12] | 0.64 (≈ 2.06 µM) |
| CCCCC(=O)c1c(C)[n+]([O-])c2ccc(Cl)cc2[n+]1[O-] [SRI17] | 2.5 (≈ 8.48 µM) |
| Cc1c(C(=O)CC(C)C)[n+]([O-])c2cc(Cl)ccc2[n+]1[O-] [SRI18] | 10 (≈ 33.9 µM) |
| CCCCCC(=O)c1c(C)[n+]([O-])c2cc(Cl)ccc2[n+]1[O-] [SRI20] | 5 (≈ 16.2 µM) |
| C=CCCC(=O)c1c(C)[n+]([O-])c2cc(Cl)ccc2[n+]1[O-] [SRI22] | 5 (≈ 17.1 µM) |
| CCC(=O)c1c(CC)[n+]([O-])c2cc(Cl)ccc2[n+]1[O-] [SRI23] | 5 (≈ 17.8 µM) |
| CCC(=O)c1c(CC)[n+]([O-])c2ccc(Cl)cc2[n+]1[O-] [SRI24] | 10 (≈ 35.6 µM) |
| Cc1c(C(=O)C2CC2)[n+]([O-])c2ccc(Cl)cc2[n+]1[O-] [SRI25] | 5 (≈ 17.9 µM) |
| Cc1c(C(=O)C(C)C)[n+]([O-])c2ccc(Cl)cc2[n+]1[O-] [SRI27] | > 40 |
| Cc1c(C(=O)C(C)C)[n+]([O-])c2cc(Cl)ccc2[n+]1[O-] [SRI28] | 10 (≈ 35.6 µM) |
| CCCCC(=O)c1c(C)[n+]([O-])c2cc(C)ccc2[n+]1[O-] [SRI30] | 5 (≈ 18.2 µM) |
| CCC(=O)c1c(CC)[n+]([O-])c2cc(C)ccc2[n+]1[O-] [SRI32] | 5 (≈ 19.2 µM) |
| Cc1ccc2c(c1)[n+]([O-])c(C)c(C(=O)CC(C)C)[n+]2[O-] [SRI34] | 20 (≈ 72.9 µM) |
| COc1ccc2c(c1)[n+]([O-])c(C(=O)CC(C)C)c(C)[n+]2[O-] [SRI43] | 20 (≈ 68.9 µM) |
| CC(C)=CCC/C(C)=C/CCC(=O)c1c(C)[n+]([O-])c2ccc(C)cc2[n+]1[O-] [SRI48] | 5 (≈ 13.6 µM) |
| Cc1c(C(=O)O)[n+]([O-])c2ccccc2[n+]1[O-] [SRI53] | > 40 |
| Cc1c(C(=O)c2cccnc2)[n+]([O-])c2cc(Cl)c(Cl)cc2[n+]1[O-] [SRI55] | 2.5 (≈ 7.14 µM) |
| CC(C)=CCC/C(C)=C/CCC(=O)c1c(C)[n+]([O-])c2cc(Cl)c(Cl)cc2[n+]1[O-] [SRI56] | 2.5 (≈ 5.91 µM) |
| NNC(=O)c1ccncc1 [isoniazid, reference compound] | 0.0031 to 0.012 (≈ 0.0226 to 0.0875 µM) |

Same assay, conditions: Mycobacterium tuberculosis, H37RV, read-out: Mtb MIC (H37Rv), in vitro cultured Mtb H37Rv; lowest concentration inhibiting ≥90% growth; initial hits, quinoxaline di-N-oxides, positive controls

| SMILES | MIC [µg/mL] |
| --- | --- |
| CC(C)=CCCC(=O)c1c(C)[n+]([O-])c2cc(Cl)c(Cl)cc2[n+]1[O-] [SRI57] | 1.2 (≈ 3.38 µM) |

Same assay, conditions: Mycobacterium tuberculosis, H37RV, read-out: Mtb MIC (H37Rv), synthesized BAS 00623753 and arylamide analogs (Table 1)

| SMILES | MIC [µg/mL] |
| --- | --- |
| O=C(NCc1ccccn1)c1ccccc1[N+](=O)[O-] [BAS 00623753, 2-nitro-N-pyridin-2-ylmethyl-benzamide] | ≥ 50 |

Same assay, conditions: Mycobacterium tuberculosis, H37RV, synthesized BAS 00623753 and arylamide analogs (Table 1); read-out: Mtb MIC (H37Rv)

| SMILES | MIC [µg/mL] |
| --- | --- |
| CC(C)(NC(=O)c1ccccc1[N+](=O)[O-])c1ncccn1 [JSF-2176] | > 50 |
| O=C(NCc1ncccn1)c1ccccc1[N+](=O)[O-] [JSF-2178] | > 50 |

Same assay, conditions: in vitro cultured Mtb H37Rv; lowest concentration inhibiting ≥90% growth; initial hits, quinoxaline di-N-oxides, positive controls

| SMILES | Mtb MIC (H37Rv) [µg/mL] |
| --- | --- |
| O=C(NCc1ccccn1)c1ccccc1[N+](=O)[O-] [BAS 00623753, 2-nitro-N-pyridin-2-ylmethyl-benzamide] | 5 |
| CC(=O)c1c(C)[n+]([O-])c2ccc(C)cc2[n+]1[O-] [SRI2] | 5.0 |
| COc1ccc2c(c1)[n+]([O-])c(C(C)=O)c(C)[n+]2[O-] [SRI3] | 10 |
| CC(=O)c1c(C)[n+]([O-])c2cc([N+](=O)[O-])ccc2[n+]1[O-] [SRI5] | 2.5 |
| Cc1ccc2c(c1)[n+]([O-])c(C)c(C(=O)c1ccccc1)[n+]2[O-] [SRI6] | >40 |
| Cc1c(C(=O)c2ccccc2)[n+]([O-])c2ccc(Cl)cc2[n+]1[O-] [SRI7] | 5 |
| Cc1c(C(=O)c2cccnc2)[n+]([O-])c2ccc(Cl)cc2[n+]1[O-] [SRI11] | 10 |
| Cc1c(C(=O)c2cccnc2)[n+]([O-])c2ccc([N+](=O)[O-])cc2[n+]1[O-] [SRI13] | 20 |
| Cc1ccc2c(c1)[n+]([O-])c(C)c(C(=O)C(F)(F)F)[n+]2[O-] [SRI14] | 10 |
| COc1ccc2c(c1)[n+]([O-])c(C)c(C(=O)C(F)(F)F)[n+]2[O-] [SRI15] | 10 |
| CCCCC(=O)c1c(C)[n+]([O-])c2cc(Cl)ccc2[n+]1[O-] [SRI16] | 5 |
| Cc1c(C(=O)CC(C)C)[n+]([O-])c2ccc(Cl)cc2[n+]1[O-] [SRI19] | 5 |
| CCCCCC(=O)c1c(C)[n+]([O-])c2ccc(Cl)cc2[n+]1[O-] [SRI21] | 10 |
| Cc1c(C(=O)C2CC2)[n+]([O-])c2cc(Cl)ccc2[n+]1[O-] [SRI26] | 5 |
| CC(C)=CCCC(=O)c1c(C)[n+]([O-])c2cc(Cl)ccc2[n+]1[O-] [SRI29] | 5 |
| CCCCCC(=O)c1c(C)[n+]([O-])c2cc(C)ccc2[n+]1[O-] [SRI31] | 20 |
| Cc1ccc2c(c1)[n+]([O-])c(C)c(C(=O)C1CC1)[n+]2[O-] [SRI33] | 5 |
| C=CCCC(=O)c1c(C)[n+]([O-])c2cc(C)ccc2[n+]1[O-] [SRI35] | 4.3 |

| SMILES | Mtb MIC (H37Rv) [µg/mL] |
| --- | --- |
| CC(C)=CCCC(=O)c1c(C)[n+]([O-])c2cc(C)ccc2[n+]1[O-] [SRI36] | 10 |
| CCC(=O)c1c(C)[n+]([O-])c2ccc(C)cc2[n+]1[O-] [SRI37] | 10 |
| Cc1ccc2c(c1)[n+]([O-])c(C)c(C(=O)C(C)C)[n+]2[O-] [SRI38] | 10 |
| CCCCC(=O)c1c(C)[n+]([O-])c2ccc(OC)cc2[n+]1[O-] [SRI39] | 10 |
| CCCCCC(=O)c1c(C)[n+]([O-])c2ccc(OC)cc2[n+]1[O-] [SRI40] | >40 |
| CCC(=O)c1c(CC)[n+]([O-])c2ccc(OC)cc2[n+]1[O-] [SRI41] | 40 |
| C=CCCC(=O)c1c(C)[n+]([O-])c2ccc(OC)cc2[n+]1[O-] [SRI44] | 20 |
| COc1ccc2c(c1)[n+]([O-])c(C(=O)CCC=C(C)C)c(C)[n+]2[O-] [SRI45] | 20 |
| CCC(=O)c1c(C)[n+]([O-])c2ccc(OC)cc2[n+]1[O-] [SRI46] | 20 |
| COc1ccc2c(c1)[n+]([O-])c(C(=O)CC/C=C(\C)CCC=C(C)C)c(C)[n+]2[O-] [SRI47] | 20 |
| CC(C)=CCC/C(C)=C/CCC(=O)c1c(C)[n+]([O-])c2ccc(Cl)cc2[n+]1[O-] [SRI49] | 5 |
| CC(C)=CCC/C(C)=C/CCC(=O)c1c(C)[n+]([O-])c2ccccc2[n+]1[O-] [SRI51] | 5 |
| Cc1c(C(=O)O)[n+]([O-])c2ccccc2[n+]1[O-] [SRI53] | >40 |
| CC(C)=CCCC(=O)c1c(C)[n+]([O-])c2cc(Cl)c(Cl)cc2[n+]1[O-] [SRI57] | 1.25 |
| CCCCCC(=O)c1c(C)[n+]([O-])c2cc(Cl)c(Cl)cc2[n+]1[O-] [SRI59] | 2.5 |
| Cc1c(C(=O)CC(C)C)[n+]([O-])c2cc(Cl)c(Cl)cc2[n+]1[O-] [SRI60] | 2.5 |
| C=CCCC(=O)c1c(C)[n+]([O-])c2cc(Cl)c(Cl)cc2[n+]1[O-] [SRI61] | 2.5 |
| Cc1c(C(=O)c2ccccc2)[n+]([O-])c2cc(Cl)c(Cl)cc2[n+]1[O-] [SRI62] | 2.5 |

Same assay, conditions: synthesized BAS 00623753 and arylamide analogs (Table 1)

| SMILES | Mtb MIC (H37Rv) [µg/mL] |
| --- | --- |
| O=C(NCc1ccccn1)c1ccccc1 [JSF-2133] | >50 |
| O=C(NCCc1ccccn1)c1ccccc1[N+](=O)[O-] [JSF-2170] | >50 |
| O=C(NCc1cnccn1)c1ccccc1[N+](=O)[O-] [JSF-2171] | >50 |
| Cc1cccnc1CNC(=O)c1ccccc1[N+](=O)[O-] [JSF-2172] | >50 |
| Cc1ccnc(CNC(=O)c2ccccc2[N+](=O)[O-])c1 [JSF-2173] | >50 |
| O=C(NCc1ccc(Cl)cn1)c1ccccc1[N+](=O)[O-] [JSF-2174] | >50 |
| Cc1ccc(CNC(=O)c2ccccc2[N+](=O)[O-])nc1 [JSF-2175] | >50 |
| O=C(NCc1ccncn1)c1ccccc1[N+](=O)[O-] [JSF-2177] | >50 |
| O=C(NCc1ccccn1)c1ccccc1F [JSF-2208] | >50 |
| Cc1ccccc1C(=O)NCc1ccccn1 [JSF-2209] | >50 |
| O=C(NCc1ccccn1)c1ccccc1[N+](=O)[O-] [JSF-2210] | >50 |
| O=C(NCc1ccccn1)c1ccccc1C(F)(F)F [JSF-2211] | >50 |
